# Tests used:
# barnyardgrass [1] = experiment: Test C flooded paddy test; format: in vivo, Echinochloa crus-galli; conditions: Flood, scale 0 to 100 (0 no effect, 100 complete control), 13 to 15 days
# How it was run: (§1)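 Flooded 3 cm over soil; compound into paddy water; depth kept constant. Greenhouse 13–15 d.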
# goosegrass = experiment: Test E preemergence; format: in vivo, Eleusine indica; conditions: for Goosegrass plant response rating: scale 0 to 100 (0 no effect, 100 complete control); for Plant response rating, Goosegrass: scale 0 to 100, 0 no effect, 100 complete control
# How it was run: (§2)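 Response was scored visually on a 0-100 scale (100 = complete control) versus controls after 14 to 21 days in the greenhouse. Test chemicals, formulated with surfactant in a non-phytotoxic solvent mixture, had been applied preemergence to seeds in silt loam soil or postemergence to 1- to 4-leaf plants in potting medium.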
# hairy beggarticks = experiment: Test E preemergence; format: in vivo, Bidens pilosa; conditions: for Beggarticks plant response rating: scale 0 to 100 (0 no effect, 100 complete control); for Plant response rating, Beggarticks: scale 0 to 100, 0 no effect, 100 complete control
# How it was run: as §2
# lambsquarters = experiment: Test E preemergence; format: in vivo, Chenopodium album; conditions: for Lambsquarters plant response rating: scale 0 to 100 (0 no effect, 100 complete control); for Plant response rating, Lambsquarters: scale 0 to 100, 0 no effect, 100 complete control
# How it was run: as §2
# johnsongrass = experiment: Test E preemergence; format: in vivo, Sorghum halepense; conditions: for Johnsongrass plant response rating: scale 0 to 100 (0 no effect, 100 complete control); for Plant response rating, Johnsongrass: scale 0 to 100, 0 no effect, 100 complete control
# How it was run: as §2
# surinam grass = experiment: Test E preemergence; format: in vivo, Brachiaria decumbens; conditions: for Surinam Grass plant response rating: scale 0 to 100 (0 no effect, 100 complete control); for Plant response rating, Surinam Grass: scale 0 to 100, 0 no effect, 100 complete control
# How it was run: as §2
# fall panicum = experiment: Test E preemergence; format: in vivo, Panicum dichotomiflorum; conditions: for Panicum, Fall plant response rating: scale 0 to 100 (0 no effect, 100 complete control); for Plant response rating, Panicum, Fall: scale 0 to 100, 0 no effect, 100 complete control
# How it was run: as §2
# ragweed = experiment: Test E preemergence; format: in vivo, Ambrosia elatior; conditions: for Ragweed plant response rating: scale 0 to 100 (0 no effect, 100 complete control); for Plant response rating, Ragweed: scale 0 to 100, 0 no effect, 100 complete control
# How it was run: as §2
# ducksalad = experiment: Test C flooded paddy test; format: in vivo, Heteranthera limosa; conditions: Flood, scale 0 to 100 (0 no effect, 100 complete control), 13 to 15 days
# How it was run: as §1
# barnyardgrass [2] = experiment: Test E preemergence; format: in vivo, Echinochloa crus-galli; conditions: for Barnyardgrass plant response rating: scale 0 to 100 (0 no effect, 100 complete control); for Plant response rating, Barnyardgrass: scale 0 to 100, 0 no effect, 100 complete control
# How it was run: as §2
# wild poinsettia = experiment: Test E preemergence; format: in vivo, Euphorbia heterophylla; conditions: for Poinsettia, Wild plant response rating: scale 0 to 100 (0 no effect, 100 complete control); for Plant response rating, Poinsettia, Wild: scale 0 to 100, 0 no effect, 100 complete control
# How it was run: as §2
# dayflower = experiment: Test E preemergence; format: in vivo, Commelina virginica; conditions: for Dayflower, VA plant response rating: scale 0 to 100 (0 no effect, 100 complete control); for Plant response rating, Dayflower, VA: scale 0 to 100, 0 no effect, 100 complete control
# How it was run: as §2
# large (Lg) crabgrass = experiment: Test E preemergence; format: in vivo, Digitaria sanguinalis; conditions: for Crabgrass, Large plant response rating: scale 0 to 100 (0 no effect, 100 complete control); for Plant response rating, Crabgrass, Large: scale 0 to 100, 0 no effect, 100 complete control
# How it was run: as §2
structure (smiles),measurement,setting,value
"N#Cc1cccc(Oc2ncc(Br)cn2)c1-n1cc(C(F)(F)F)cn1 [Compound 59, 3-[(5-bromo-2-pyrimidinyl)oxy]-2-[4-(trifluoromethyl)-1H-pyrazol-1-yl]benzonitrile]","Plant response rating, Barnyardgrass",barnyardgrass [1]; 31 g ai/ha,0
same,"Plant response rating, Barnyardgrass",barnyardgrass [1]; 62 g ai/ha,0
same,"Plant response rating, Barnyardgrass",barnyardgrass [1]; 125 g ai/ha,30
same,"Plant response rating, Barnyardgrass",barnyardgrass [1]; 250 g ai/ha,40
same,Goosegrass plant response rating,goosegrass; 16 g ai/ha,15
same,Goosegrass plant response rating,goosegrass; 31 g ai/ha,25
same,Goosegrass plant response rating,goosegrass; 62 g ai/ha,65
same,"Plant response rating, Goosegrass",goosegrass; 125 g ai/ha,98
same,"Plant response rating, Goosegrass",goosegrass; 250 g ai/ha,98
same,Beggarticks plant response rating,"hairy beggarticks; 16 g ai/ha, preemergence",0
same,Beggarticks plant response rating,"hairy beggarticks; 31 g ai/ha, preemergence",0
same,"Plant response rating, Beggarticks","hairy beggarticks; Preemergence, 62 g ai/ha",0
same,"Plant response rating, Beggarticks","hairy beggarticks; preemergence, 125 g ai/ha",0
same,"Plant response rating, Beggarticks","hairy beggarticks; preemergence, 250 g ai/ha",25
same,Lambsquarters plant response rating,lambsquarters; 16 g ai/ha,98
same,Lambsquarters plant response rating,lambsquarters; 31 g ai/ha,98
same,Lambsquarters plant response rating,lambsquarters; 62 g ai/ha,100
same,"Plant response rating, Lambsquarters",lambsquarters; 125 g ai/ha,100
same,"Plant response rating, Lambsquarters",lambsquarters; 250 g ai/ha,100
same,Johnsongrass plant response rating,johnsongrass; 16 g ai/ha,0
same,Johnsongrass plant response rating,johnsongrass; 31 g ai/ha,0
same,Johnsongrass plant response rating,johnsongrass; 62 g ai/ha,60
same,"Plant response rating, Johnsongrass",johnsongrass; 125 g ai/ha,75
same,"Plant response rating, Johnsongrass",johnsongrass; 250 g ai/ha,100
same,Surinam Grass plant response rating,surinam grass; 16 g ai/ha,0
same,Surinam Grass plant response rating,surinam grass; 31 g ai/ha,0
same,Surinam Grass plant response rating,surinam grass; 62 g ai/ha,5
same,"Plant response rating, Surinam Grass",surinam grass; 125 g ai/ha,20
same,"Plant response rating, Surinam Grass",surinam grass; 250 g ai/ha,65
same,"Panicum, Fall plant response rating",fall panicum; 16 g ai/ha,50
same,"Panicum, Fall plant response rating",fall panicum; 31 g ai/ha,75
same,"Panicum, Fall plant response rating",fall panicum; 62 g ai/ha,98
same,"Plant response rating, Panicum, Fall",fall panicum; 125 g ai/ha,100
same,"Plant response rating, Panicum, Fall",fall panicum; 250 g ai/ha,100
same,Ragweed plant response rating,ragweed; 16 g ai/ha,0
same,Ragweed plant response rating,ragweed; 31 g ai/ha,0
same,Ragweed plant response rating,ragweed; 62 g ai/ha,0
same,"Plant response rating, Ragweed",ragweed; 125 g ai/ha,5
same,"Plant response rating, Ragweed",ragweed; 250 g ai/ha,50
same,"Plant response rating, Ducksalad",ducksalad; 31 g ai/ha,50
same,"Plant response rating, Ducksalad",ducksalad; 62 g ai/ha,75
same,"Plant response rating, Ducksalad",ducksalad; 125 g ai/ha,95
same,"Plant response rating, Ducksalad",ducksalad; 250 g ai/ha,95
same,Barnyardgrass plant response rating,"barnyardgrass [2]; 16 g ai/ha, preemergence",0
same,Barnyardgrass plant response rating,"barnyardgrass [2]; 31 g ai/ha, preemergence",20
same,"Plant response rating, Barnyardgrass","barnyardgrass [2]; Preemergence, 62 g ai/ha",50
same,"Plant response rating, Barnyardgrass","barnyardgrass [2]; preemergence, 125 g ai/ha",75
same,"Plant response rating, Barnyardgrass","barnyardgrass [2]; preemergence, 250 g ai/ha",95
same,"Poinsettia, Wild plant response rating",wild poinsettia; 16 g ai/ha,0
same,"Poinsettia, Wild plant response rating",wild poinsettia; 31 g ai/ha,0
same,"Poinsettia, Wild plant response rating",wild poinsettia; 62 g ai/ha,10
same,"Plant response rating, Poinsettia, Wild",wild poinsettia; 125 g ai/ha,20
same,"Plant response rating, Poinsettia, Wild",wild poinsettia; 250 g ai/ha,100
same,"Dayflower, VA plant response rating",dayflower; 16 g ai/ha,0
same,"Dayflower, VA plant response rating",dayflower; 31 g ai/ha,5
same,"Dayflower, VA plant response rating",dayflower; 62 g ai/ha,25
same,"Plant response rating, Dayflower, VA",dayflower; 125 g ai/ha,85
same,"Plant response rating, Dayflower, VA",dayflower; 250 g ai/ha,98
same,"Crabgrass, Large plant response rating",large (Lg) crabgrass; 16 g ai/ha,5
same,"Crabgrass, Large plant response rating",large (Lg) crabgrass; 31 g ai/ha,95
same,"Crabgrass, Large plant response rating",large (Lg) crabgrass; 62 g ai/ha,100
same,"Plant response rating, Crabgrass, Large",large (Lg) crabgrass; 125 g ai/ha,100
same,"Plant response rating, Crabgrass, Large",large (Lg) crabgrass; 250 g ai/ha,100
FC(F)(F)c1cnn(-c2c(Cl)cccc2Oc2ncc(Cl)cn2)c1 [Compound 167],"Plant response rating, Barnyardgrass",barnyardgrass [1]; 31 g ai/ha,0
same,"Plant response rating, Barnyardgrass",barnyardgrass [1]; 62 g ai/ha,0
same,"Plant response rating, Barnyardgrass",barnyardgrass [1]; 125 g ai/ha,0
same,"Plant response rating, Barnyardgrass",barnyardgrass [1]; 250 g ai/ha,0
same,Goosegrass plant response rating,goosegrass; 31 g ai/ha,60
same,Goosegrass plant response rating,goosegrass; 62 g ai/ha,75
same,"Plant response rating, Goosegrass",goosegrass; 125 g ai/ha,98
same,Beggarticks plant response rating,"hairy beggarticks; 16 g ai/ha, preemergence",0
same,Beggarticks plant response rating,"hairy beggarticks; 31 g ai/ha, preemergence",0
same,Beggarticks plant response rating,"hairy beggarticks; 62 g ai/ha, preemergence",0
same,"Plant response rating, Beggarticks","hairy beggarticks; preemergence, 125 g ai/ha",0
same,Lambsquarters plant response rating,lambsquarters; 31 g ai/ha,98
same,Lambsquarters plant response rating,lambsquarters; 62 g ai/ha,100
same,"Plant response rating, Lambsquarters",lambsquarters; 125 g ai/ha,100
same,Johnsongrass plant response rating,johnsongrass; 31 g ai/ha,10
same,Johnsongrass plant response rating,johnsongrass; 62 g ai/ha,30
same,"Plant response rating, Johnsongrass",johnsongrass; 125 g ai/ha,70
same,Surinam Grass plant response rating,surinam grass; 31 g ai/ha,0
same,Surinam Grass plant response rating,surinam grass; 62 g ai/ha,0
same,"Plant response rating, Surinam Grass",surinam grass; 125 g ai/ha,0
same,"Panicum, Fall plant response rating",fall panicum; 31 g ai/ha,65
same,"Panicum, Fall plant response rating",fall panicum; 62 g ai/ha,100
same,"Plant response rating, Panicum, Fall",fall panicum; 125 g ai/ha,100
same,Ragweed plant response rating,ragweed; 31 g ai/ha,15
same,Ragweed plant response rating,ragweed; 62 g ai/ha,35
same,"Plant response rating, Ragweed",ragweed; 125 g ai/ha,35
same,"Plant response rating, Ducksalad",ducksalad; 31 g ai/ha,0
same,"Plant response rating, Ducksalad",ducksalad; 62 g ai/ha,50
same,"Plant response rating, Ducksalad",ducksalad; 125 g ai/ha,60
same,"Plant response rating, Ducksalad",ducksalad; 250 g ai/ha,80
same,Barnyardgrass plant response rating,"barnyardgrass [2]; 16 g ai/ha, preemergence",20
same,Barnyardgrass plant response rating,"barnyardgrass [2]; 31 g ai/ha, preemergence",20
same,Barnyardgrass plant response rating,"barnyardgrass [2]; 62 g ai/ha, preemergence",25
same,"Plant response rating, Barnyardgrass","barnyardgrass [2]; preemergence, 125 g ai/ha",75
same,"Poinsettia, Wild plant response rating",wild poinsettia; 31 g ai/ha,0
same,"Poinsettia, Wild plant response rating",wild poinsettia; 62 g ai/ha,20
same,"Plant response rating, Poinsettia, Wild",wild poinsettia; 125 g ai/ha,25
same,"Dayflower, VA plant response rating",dayflower; 16 g ai/ha,0
same,"Dayflower, VA plant response rating",dayflower; 31 g ai/ha,5
same,"Dayflower, VA plant response rating",dayflower; 62 g ai/ha,65
same,"Plant response rating, Dayflower, VA",dayflower; 125 g ai/ha,100
same,"Crabgrass, Large plant response rating",large (Lg) crabgrass; 16 g ai/ha,0
same,"Crabgrass, Large plant response rating",large (Lg) crabgrass; 31 g ai/ha,65
same,"Crabgrass, Large plant response rating",large (Lg) crabgrass; 62 g ai/ha,100
same,"Plant response rating, Crabgrass, Large",large (Lg) crabgrass; 125 g ai/ha,100
